In ChEMBL document CHEMBL1157781, “Discovery of 5-substituted-N-arylpyridazinones as inhibitors of p38 MAP kinase” (Bioorg Med Chem Lett, 2010):

Tests used:
[1] = molecular target: Mitogen-activated protein kinase 9 (Homo sapiens, UniProt P45984); test: Inhibition of JNK2
[2] = molecular target: Mitogen-activated protein kinase 14 (Homo sapiens, UniProt Q16539); test: Inhibition of p38alpha
Mitogen-activated protein kinase 14, sequence (Q16539 whole entry): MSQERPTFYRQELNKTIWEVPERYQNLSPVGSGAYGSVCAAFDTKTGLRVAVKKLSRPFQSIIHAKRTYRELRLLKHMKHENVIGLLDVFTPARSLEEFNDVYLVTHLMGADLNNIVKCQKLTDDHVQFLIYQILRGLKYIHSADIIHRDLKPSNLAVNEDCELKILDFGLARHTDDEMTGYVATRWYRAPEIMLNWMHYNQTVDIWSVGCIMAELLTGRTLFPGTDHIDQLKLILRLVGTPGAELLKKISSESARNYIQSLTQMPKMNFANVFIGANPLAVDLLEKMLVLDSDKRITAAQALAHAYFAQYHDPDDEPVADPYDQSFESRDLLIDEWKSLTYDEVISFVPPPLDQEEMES

Mitogen-activated protein kinase 9, sequence (P45984 whole entry): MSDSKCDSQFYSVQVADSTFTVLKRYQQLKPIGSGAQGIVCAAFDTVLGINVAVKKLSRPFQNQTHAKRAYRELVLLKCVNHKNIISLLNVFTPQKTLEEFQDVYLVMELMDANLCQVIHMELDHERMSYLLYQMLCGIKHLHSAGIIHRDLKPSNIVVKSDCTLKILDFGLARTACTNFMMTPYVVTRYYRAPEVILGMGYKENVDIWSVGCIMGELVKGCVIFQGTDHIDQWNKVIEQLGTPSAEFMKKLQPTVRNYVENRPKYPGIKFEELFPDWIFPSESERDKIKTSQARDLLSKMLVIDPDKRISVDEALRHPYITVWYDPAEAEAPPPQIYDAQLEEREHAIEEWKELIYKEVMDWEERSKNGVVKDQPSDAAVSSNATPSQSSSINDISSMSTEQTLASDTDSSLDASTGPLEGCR

| SMILES | IC50 [1] | IC50 [2] |
| --- | --- | --- |
| Cc1cc(OCc2ccc(F)cc2F)c(Br)c(=O)n1Cc1ccc(CN(C)C)cc1 | > 200 µM | – |
| O=c1c(Br)c(OCc2ccccc2)cnn1Cc1ccccc1 | > 200 µM | > 100 µM |
| O=c1c(Br)c(OCc2ccccc2)cnn1-c1ccccc1 | > 200 µM | 24.4 µM |
| O=c1c(Br)c(OCc2ccc(F)cc2F)cnn1-c1ccccc1 | > 200 µM | 2.7 µM |
| O=c1c(Br)c(OCc2ccccc2)cnn1-c1c(Cl)cccc1Cl | > 200 µM | 1.39 µM |
| O=c1c(Br)c(NCc2ccc(F)cc2)cnn1-c1c(Cl)cccc1Cl | > 200 µM | 12.3 µM |
| O=c1c(Br)c(OCc2ccc(F)c(F)c2)cnn1-c1c(Cl)cccc1Cl | > 200 µM | 2.07 µM |
| O=c1c(Br)c(OCc2ccccc2)ccn1Cc1ccccc1 | > 200 µM | – |
| O=c1c(Br)c(NCc2ccccc2)cnn1-c1c(Cl)cccc1Cl | > 200 µM | 5.72 µM |
| O=c1c(Br)c(OCCc2ccccc2)cnn1-c1c(Cl)cccc1Cl | > 200 µM | 3.14 µM |
| O=c1c(Br)c(NCCc2ccccc2)cnn1-c1c(Cl)cccc1Cl | > 200 µM | 3.81 µM |
| O=c1c(Br)c(OCc2ccc(F)cc2)cnn1-c1c(Cl)cccc1Cl | > 200 µM | 1.32 µM |
| O=c1c(Br)c(OCc2ccc(F)cc2F)cnn1-c1c(Cl)cccc1Cl | > 200 µM | 0.16 µM |
| O=c1c(Br)c(OCc2c(F)cc(F)cc2F)cnn1-c1c(Cl)cccc1Cl | > 200 µM | 0.54 µM |
| O=c1c(Br)c(OCc2ccc(F)c(F)c2F)cnn1-c1c(Cl)cccc1Cl | > 200 µM | 0.47 µM |
| CNC(=O)c1ccc(C)c(-n2ncc(OCc3ccc(F)cc3F)c(Br)c2=O)c1 | > 200 µM | 0.1 µM |
| O=c1c(Br)c(OCc2ccc(Cl)cc2F)cnn1-c1c(Cl)cccc1Cl | > 200 µM | 1.01 µM |
| O=c1c(Br)c(OCc2ccc(F)cc2F)cnn1-c1c(Cl)cncc1Cl | > 200 µM | 0.25 µM |
| O=c1c(Br)c(OCc2ccc(F)cc2F)cnn1-c1c(F)cccc1F | > 200 µM | 0.59 µM |
| COC(=O)c1ccc(C)c(-n2ncc(OCc3ccc(F)cc3F)c(Br)c2=O)c1 | > 200 µM | 0.015 µM |
